Measured values taken from patent US6339045B1, “N-(unsubstituted or substituted)-4-substituted-6-(unsubstituted or substituted)phenoxy-2-pyridinecarboxamides or thiocarboxamides, processes for producing the same, and herbicides” (Kureha Kagaku Kogyo Kabushiki Kaisha, priority 1995, dated 2002).

What was measured:
Test in all cases: Herbicidal effect by foliage and soil treatment
Type in all cases: in vivo
Details in all cases: 10 g ai/10a, evaluated after 14 days
[1] = tested on: cleavers (Galium aparine)
Description: (§1) Experiment for Determination of Herbicidal Effect by Foliate and Soil Treatment Seeds of redroot pigweed (Amaranthus retroflexus), common blackjack (Bidens pilosa), kediock (Sinapis arvensis), common chickweed (Stellaria media), sicklepod (Cassia obtusifolia), black nightshade (Solanum nigrum), velvetleaf (Abutilon theophrasti), field bindweed (Convolvulus arvensis), wild chamomile (Matricaria chamomilla), cleavers (Galium aparine) and […] (Veronica hederaefolia), were uniformly sowed over a horticultural granular soil (produced by KUREHA CHEMICAL INDUSTRY, CO., LTD.; the same soil was used hereinafter) filled in a planter. The planter was placed in a greenhouse (maintained at 19 to 25° C.) to sprout these plants. Two seedlings of each sprouted plant were transplanted to a 10 cm-diameter pot filled with the horticultural granular soil and cultivated in the greenhouse (maintained at 19 to 25° C.) until reaching a cotyledonal to bifoliate period suited to the foliage and soil treatment. […] Next, additional amounts of Tween 20 and water were added to the obtained solution or suspension to produce a test solution. The plants prepared in the above (1) were placed within a frame having a predetermined inside area, and uniformly sprayed with the test solution using a sprayer such that the amount of each compound applied was controlled to a predetermined level. The plants sprayed with the test solution were placed again in the greenhouse (maintained at 19 to 25° C.) and cultivated therein. After 14 days, the degree of growth of each plant cultivated in the treated region was compared with that of plant cultivated in non-treated region, and evaluated according to the following ratings. The herbicidal activity of each test compound was represented by these ratings

[2] = tested on: wild chamomile (Matricaria chamomilla)
Description: as §1

[3] = tested on: common chickweed (Stellaria media)
Description: as §1

[4] = tested on: ivyleafspeedwell (Veronica hederaefolia)
Description: as §1

[5] = tested on: velvetleaf (Abutilon theophrasti)
Description: as §1

[6] = tested on: redroot pigweed (Amaranthus retroflexus)
Description: as §1

[7] = tested on: sicklepod (Cassia obtusifolia)
Description: as §1

[8] = tested on: black nightshade (Solanum nigrum)
Description: as §1

[9] = tested on: field bindweed (Convolvulus arvensis)
Description: as §1

[10] = tested on: kediock (Sinapis arvensis)
Description: as §1

[11] = tested on: common blackjack (Bidens pilosa)
Description: as §1

Row | Structure (SMILES) | herbicidal activity rating, GA (Galium aparine) [1] | herbicidal activity rating, MC (Matricaria chamomilla) [2] | herbicidal activity rating, SM (Stellaria media) [3] | herbicidal activity rating, VH (Veronica hederaefolia) [4] | herbicidal activity rating, AT (Abutilon theophrasti) [5] | herbicidal activity rating, AR (Amaranthus retroflexus) [6] | herbicidal activity rating, CO (Cassia obtusifolia) [7] | herbicidal activity rating, SN (Solanum nigrum) [8] | herbicidal activity rating, CA (Convolvulus arvensis) [9] | herbicidal activity rating, SA (Sinapis arvensis) [10] | herbicidal activity rating, BP (Bidens pilosa) [11]
1 | CC(C)NC(=O)c1cc(N(C)Cc2ccccc2)cc(Oc2cccc(C(F)(F)F)c2)n1 [Compound I-58, N-(i-propyl)-4-{methyl(phenylmethyl)amino}-6-{3-(trifluoromethyl)phenoxy}-2-pyridine carboxamide] | 5 (percentage of weeds killed was not less than 80%) | 3 (percentage of weeds killed was not less than 40% and less than 60%) | 4 (percentage of weeds killed was not less than 60% and less than 80%) | 5 (percentage of weeds killed was not less than 80%) | 4 (percentage of weeds killed was not less than 60% and less than 80%) | 5 (percentage of weeds killed was not less than 80%) | 5 (percentage of weeds killed was not less than 80%) | 5 (percentage of weeds killed was not less than 80%) | 5 (percentage of weeds killed was not less than 80%) | 5 (percentage of weeds killed was not less than 80%) | 2 (percentage of weeds killed was not less than 20% and less than 40%)
2 | CONC(=O)c1cc(OC)cc(Oc2cccc(C(F)(F)F)c2)n1 [Compound I-97, N-methoxy-4-methoxy-6-{3-(trifluoromethyl)phenoxy}-2-pyridine carboxamide] | 5 (percentage of weeds killed was not less than 80%) | 5 (percentage of weeds killed was not less than 80%) | 5 (percentage of weeds killed was not less than 80%) | 5 (percentage of weeds killed was not less than 80%) | 5 (percentage of weeds killed was not less than 80%) | 5 (percentage of weeds killed was not less than 80%) | 5 (percentage of weeds killed was not less than 80%) | 5 (percentage of weeds killed was not less than 80%) | 4 (percentage of weeds killed was not less than 60% and less than 80%) | 5 (percentage of weeds killed was not less than 80%) | 5 (percentage of weeds killed was not less than 80%)
3 | COc1cc(Oc2cccc(C(F)(F)F)c2)nc(C(=O)NOCCF)c1 [Compound I-102] | 5 (percentage of weeds killed was not less than 80%) | 3 (percentage of weeds killed was not less than 40% and less than 60%) | 4 (percentage of weeds killed was not less than 60% and less than 80%) | 5 (percentage of weeds killed was not less than 80%) | 4 (percentage of weeds killed was not less than 60% and less than 80%) | 5 (percentage of weeds killed was not less than 80%) | 5 (percentage of weeds killed was not less than 80%) | 5 (percentage of weeds killed was not less than 80%) | 4 (percentage of weeds killed was not less than 60% and less than 80%) | 5 (percentage of weeds killed was not less than 80%) | 5 (percentage of weeds killed was not less than 80%)
4 | COc1cc(Oc2cccc(C(F)(F)F)c2)nc(C(=O)NCC(F)(F)C(F)(F)F)c1 [Compound I-81] | 5 (percentage of weeds killed was not less than 80%) | 5 (percentage of weeds killed was not less than 80%) | 5 (percentage of weeds killed was not less than 80%) | 5 (percentage of weeds killed was not less than 80%) | 5 (percentage of weeds killed was not less than 80%) | 5 (percentage of weeds killed was not less than 80%) | 5 (percentage of weeds killed was not less than 80%) | 5 (percentage of weeds killed was not less than 80%) | 5 (percentage of weeds killed was not less than 80%) | 5 (percentage of weeds killed was not less than 80%) | 5 (percentage of weeds killed was not less than 80%)
5 | COc1cc(Oc2cccc(C(F)(F)F)c2)nc(C(=O)NC2CCCC2)c1 [Compound I-50] | 5 (percentage of weeds killed was not less than 80%) | 5 (percentage of weeds killed was not less than 80%) | 5 (percentage of weeds killed was not less than 80%) | 5 (percentage of weeds killed was not less than 80%) | 4 (percentage of weeds killed was not less than 60% and less than 80%) | 5 (percentage of weeds killed was not less than 80%) | 4 (percentage of weeds killed was not less than 60% and less than 80%) | 5 (percentage of weeds killed was not less than 80%) | 5 (percentage of weeds killed was not less than 80%) | 5 (percentage of weeds killed was not less than 80%) | 5 (percentage of weeds killed was not less than 80%)
6 | COc1cc(Oc2cccc(C(F)(F)F)c2)nc(C(=O)NCS(C)(=O)=O)c1 [Compound I-127] | 5 (percentage of weeds killed was not less than 80%) | 4 (percentage of weeds killed was not less than 60% and less than 80%) | 5 (percentage of weeds killed was not less than 80%) | 5 (percentage of weeds killed was not less than 80%) | 5 (percentage of weeds killed was not less than 80%) | 5 (percentage of weeds killed was not less than 80%) | 5 (percentage of weeds killed was not less than 80%) | 5 (percentage of weeds killed was not less than 80%) | 5 (percentage of weeds killed was not less than 80%) | 5 (percentage of weeds killed was not less than 80%) | 5 (percentage of weeds killed was not less than 80%)
7 | COc1cc(Oc2cccc(C(F)(F)F)c2)nc(C(=O)N2CCCC2)c1 [Compound I-302, 4-methoxy-2-{N-(pyrrolidinyl)carbonyl}-6-{3-(trifluoromethyl)phenoxy}pyridine] | 5 (percentage of weeds killed was not less than 80%) | 4 (percentage of weeds killed was not less than 60% and less than 80%) | 5 (percentage of weeds killed was not less than 80%) | 5 (percentage of weeds killed was not less than 80%) | 4 (percentage of weeds killed was not less than 60% and less than 80%) | 5 (percentage of weeds killed was not less than 80%) | 5 (percentage of weeds killed was not less than 80%) | 5 (percentage of weeds killed was not less than 80%) | 4 (percentage of weeds killed was not less than 60% and less than 80%) | 5 (percentage of weeds killed was not less than 80%) | 2 (percentage of weeds killed was not less than 20% and less than 40%)
